The text below walks through data of PubChem BioAssay (NCI).

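1) Cells in 96-well plates. 2) Compound, 48 h, 5 concentrations. 3) Linear interpolation between surrounding doses. 4) Unreached endpoint = highest concentration. Here, GI50 denotes the concentration required for 50% inhibition of growth. Definition used: TGI = concentration required for complete inhibition of growth.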

Some test systems named below: HCT-116 colon; HOP-92 NSCLC; HT29 colon; KM12 colon; MDA-MB-231 breast; NCI-H226 lung; SK-MEL-28 melanoma; SNB-75 CNS; U251 CNS; UO-31 renal.
What all share (assay): DTP human tumour cell line panel, 48 h

What is called GI50 is the concentration giving 50% growth inhibition. What is called TGI is the concentration at which net growth stops. Low values mean greater sensitivity of the cells, high ones lower sensitivity of the cells. For `Cc1cc(=O)oc2ccc(OC/C=C3\CCC(=O)O3)cc12`, the GI50 in the experiment with HCT-116 colon is 3.82 µM; in the experiment with HOP-92 NSCLC, 5 µM; in the experiment with HT29 colon, 3.62 µM; in the experiment on KM12 colon, 7.76 µM; in the experiment on MDA-MB-231 breast it was 13.2 µM; in the experiment on NCI-H226 lung it was 17.2 µM. Also, the GI50 with SK-MEL-28 melanoma is 11.3 µM; in the experiment on SNB-75 CNS it was 1.87 µM; in the experiment on U251 CNS, 12.2 µM; in the experiment with UO-31 renal it was 2.09 µM. Moreover, the TGI turned out to be 15.1 µM in the experiment with HCT-116 colon; 24.4 µM with HOP-92 NSCLC; 15.5 µM in the experiment on HT29 colon; 25.5 µM in the experiment on KM12 colon; 27 µM in the experiment with MDA-MB-231 breast; 57.2 µM in the experiment with NCI-H226 lung. Moreover, the total growth inhibition concentration (TGI) was 23.5 µM with SK-MEL-28 melanoma, 12.3 µM in the experiment on SNB-75 CNS, 24.6 µM in the experiment on U251 CNS and 10.2 µM in the experiment on UO-31 renal.
Regarding `COc1cnc2c(c1)C(=O)c1c-2n(CCCNC2=NCCS2)c(=O)c2cc(F)ccc12`, the GI50 in the experiment on HCT-116 colon is 0.0825 µM; in the experiment with HOP-92 NSCLC, 0.563 µM; with HT29 colon, 0.0753 µM; in the experiment on KM12 colon, 0.577 µM; in the experiment on MDA-MB-231 breast it was 1.14 µM; with NCI-H226 lung, 0.247 µM. Further, the GI50 was 12.1 µM with SK-MEL-28 melanoma, 0.358 µM in the experiment with SNB-75 CNS, 0.0442 µM with U251 CNS and 0.108 µM in the experiment with UO-31 renal. Further, the TGI worked out at 1.83 µM with HCT-116 colon; 19.7 µM with HOP-92 NSCLC; 2.02 µM in the experiment on HT29 colon; 3.68 µM with KM12 colon; 2.57 µM with MDA-MB-231 breast; 1.66 µM in the experiment on NCI-H226 lung. Also, the TGI in the experiment on SK-MEL-28 melanoma came out at 24.9 µM; in the experiment with SNB-75 CNS, 18.9 µM; in the experiment on U251 CNS, 1.35 µM; in the experiment with UO-31 renal it was 1.12 µM.
As for `C/C(=N\O)c1ccc2ccc3ccccc3c2c1`, the TGI was above 100 µM with HCT-116 colon; above 100 µM in the experiment on HT29 colon; 45 µM with KM12 colon; above 100 µM in the experiment on MDA-MB-231 breast; 85.6 µM in the experiment on NCI-H226 lung; above 100 µM in the experiment with SK-MEL-28 melanoma. For the same compound, the TGI with SNB-75 CNS, with U251 CNS and in the experiment with UO-31 renal was above 100 µM each time.
Take `COc1cccc(/C=C/C(=O)c2ccc3cc(OC)ccc3c2)c1`: the GI50 in the experiment with HCT-116 colon was 9.21 µM; with HOP-92 NSCLC, 11.1 µM; in the experiment on KM12 colon, 9.91 µM; in the experiment with MDA-MB-231 breast, 8.95 µM; in the experiment with SK-MEL-28 melanoma, 12.6 µM; in the experiment on SNB-75 CNS it was 0.066 µM. In addition, the results for the GI50 in the experiment on U251 CNS and with UO-31 renal were 14 µM and 9.25 µM, respectively. The TGI was 16.2 µM in the experiment with HCT-116 colon; 41.3 µM in the experiment with HOP-92 NSCLC; 22.9 µM in the experiment on KM12 colon; 22.9 µM in the experiment with MDA-MB-231 breast; 48.1 µM in the experiment on SK-MEL-28 melanoma; 14.6 µM in the experiment with SNB-75 CNS. For the same compound, the TGI was determined as 42 µM with U251 CNS and 19 µM with UO-31 renal.
For `COc1cc(/C=C/C(=O)c2cccc(-n3cc(-c4cc(OC)c(OC)c(OC)c4)[nH]c3=O)c2)cc(OC)c1OC`, the GI50 is 0.749 µM in the experiment on HCT-116 colon; 1.7 µM in the experiment on HT29 colon; 1.12 µM in the experiment on KM12 colon; 4.19 µM with MDA-MB-231 breast; 14.4 µM with NCI-H226 lung; 1.61 µM in the experiment on SK-MEL-28 melanoma. Moreover, the GI50 was 5.13 µM in the experiment with SNB-75 CNS, 1.23 µM with U251 CNS and 0.962 µM in the experiment with UO-31 renal. In addition, the TGI was found to be 2.13 µM in the experiment on HCT-116 colon; 7.03 µM in the experiment with HT29 colon; 2.46 µM in the experiment with KM12 colon; 26.3 µM with MDA-MB-231 breast; 80.3 µM with NCI-H226 lung; 3.39 µM in the experiment on SK-MEL-28 melanoma. In addition, the values for the TGI in the experiment on SNB-75 CNS, in the experiment on U251 CNS and in the experiment with UO-31 renal were 21 µM, 3.71 µM and 3.13 µM, respectively.
Turning to `COc1ccc(-c2cc(=O)c3c(O)c(OC)c(OC)c(OC)c3o2)cc1OC`, the TGI was above 100 µM in the experiment on HCT-116 colon; 28 µM with HOP-92 NSCLC; above 100 µM with HT29 colon; above 100 µM with KM12 colon; above 100 µM in the experiment on MDA-MB-231 breast; above 100 µM in the experiment with NCI-H226 lung. The TGI in the experiment with SK-MEL-28 melanoma, in the experiment on U251 CNS and with UO-31 renal was above 100 µM throughout.
On to `NC(N)=N/N=C/c1c(-c2ccsc2)nc2n1CCS2`, for which the GI50 in the experiment on HCT-116 colon is 14.3 µM; in the experiment with HT29 colon, 51 µM; with KM12 colon, 17.1 µM; with MDA-MB-231 breast it was 28.1 µM; in the experiment with NCI-H226 lung it was 13 µM; in the experiment on U251 CNS it was 14.6 µM. Further, in the experiment with UO-31 renal, the GI50 is 65.5 µM. Besides, the total growth inhibition concentration (TGI) in the experiment with HCT-116 colon was 27.3 µM; in the experiment with HT29 colon, above 100 µM; with KM12 colon it was 43.1 µM; in the experiment on MDA-MB-231 breast, 82.1 µM; in the experiment with NCI-H226 lung, 40.1 µM; in the experiment on U251 CNS it was 35.7 µM. In addition, the total growth inhibition concentration (TGI) in the experiment with UO-31 renal is above 100 µM.
